Laboratory results from article PMC2967674 (Bioorganic & medicinal chemistry, 2009).
pKi: −log10 of the molar value. Like-named read-outs stand apart in the source and are kept apart here. Blank lines part the entries; values can stand above or below the compound they belong to.

How the values were obtained:
[1] = target: T1, System xc^− transporter (SXc^−) (Homo sapiens, UniProt Q9UPY5); type: cell-based; details: SNB-19 cells; for inhibitory activity at SXc^− (in words): initial screen at a single concentration (250 μM or 500 μM)
T1 sequence (Q9UPY5 1-501): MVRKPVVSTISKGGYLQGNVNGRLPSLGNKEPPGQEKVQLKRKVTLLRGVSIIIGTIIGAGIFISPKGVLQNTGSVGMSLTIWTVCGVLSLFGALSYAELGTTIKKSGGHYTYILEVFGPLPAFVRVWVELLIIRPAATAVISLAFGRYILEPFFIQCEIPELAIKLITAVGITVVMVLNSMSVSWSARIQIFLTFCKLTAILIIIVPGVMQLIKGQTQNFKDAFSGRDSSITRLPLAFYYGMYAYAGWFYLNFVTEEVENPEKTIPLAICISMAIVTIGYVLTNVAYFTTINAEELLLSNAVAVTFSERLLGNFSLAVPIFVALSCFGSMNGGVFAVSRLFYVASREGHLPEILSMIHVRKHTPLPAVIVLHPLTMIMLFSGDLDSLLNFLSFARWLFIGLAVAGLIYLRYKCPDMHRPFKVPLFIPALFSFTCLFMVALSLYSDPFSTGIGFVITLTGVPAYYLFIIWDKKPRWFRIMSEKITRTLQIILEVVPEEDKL
T1 sequence (P08195 1-529 partner): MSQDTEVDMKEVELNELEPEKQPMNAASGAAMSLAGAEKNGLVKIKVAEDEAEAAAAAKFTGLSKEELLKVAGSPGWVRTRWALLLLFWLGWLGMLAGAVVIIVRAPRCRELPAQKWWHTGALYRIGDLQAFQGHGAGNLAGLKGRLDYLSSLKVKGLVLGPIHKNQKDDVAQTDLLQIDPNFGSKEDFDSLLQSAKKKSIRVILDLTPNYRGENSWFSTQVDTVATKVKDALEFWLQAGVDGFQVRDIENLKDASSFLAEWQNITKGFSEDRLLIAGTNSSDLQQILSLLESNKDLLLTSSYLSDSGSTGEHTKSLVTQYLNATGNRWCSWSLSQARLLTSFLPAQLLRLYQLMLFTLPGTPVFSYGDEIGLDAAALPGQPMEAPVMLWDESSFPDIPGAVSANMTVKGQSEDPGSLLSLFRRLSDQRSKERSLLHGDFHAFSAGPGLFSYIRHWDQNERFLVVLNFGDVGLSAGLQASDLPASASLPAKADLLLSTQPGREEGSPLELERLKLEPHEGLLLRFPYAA

SXc^− [2] = details: cited from earlier work
SXc^− [3] = details: read-out: Ki at SXc^−; cited from earlier work
AMPA receptor = details: brain slice; cited from earlier work
SXc^− [4] = target: T2, SXc^− (Homo sapiens, UniProt Q9UPY5); type: cell-based; details: SNB-19 cells, Na-free; for substrate-induced efflux of L-Glu (substrate activity): 500 μM; for attenuation of L-Cys2-induced efflux of L-Glu: added together with L-cystine
T2 sequence (Q9UPY5 1-501): T1 sequence (Q9UPY5 1-501)
T2 sequence (P08195 1-529 partner): T1 sequence (P08195 1-529 partner)

GluR2 = details: S1S2 construct filter assay; Gouaux, personal communication; cited from earlier work
[5] = Conversion of open hydrazone to closed isoxazolo[3,4-d]pyridazinone in solution; type: physicochemical; details: on standing in solution, 11a to 13a

Compound: N[C@H](C(=O)O)c1ccc(C(=O)O)cc1 [Compound 4-S-CPG, 4-S-carboxy-phenylglycine]
substrate activity at SXc^− (in words) (SXc^− [2]): essentially a non-substrate inhibitor
pKi (SXc^− [3]): ~5.30

Compound: Cc1onc(O)c1C[C@H](N)C(=O)O [Compound 6, aminomethyl isoxazole propionic acid, reference compound]
inhibitory activity at SXc^− (in words) [1]: no discernable activity

Compound: C/C(=N\NC(N)=O)c1c(C(=O)O)noc1C [Compound 9b]
GluR2 binding (GluR2): no detectable GluR2 binding

Compound: C/C(=N\Nc1ccc([N+](=O)[O-])cc1[N+](=O)[O-])c1c(C(=O)O)noc1C [Compound 11d, 4-{1-[(2,4-Dinitro-phenyl)-hydrazono]-ethyl}-5-methyl-isoxazole-3-carboxylic acid]
GluR2 binding (GluR2): no detectable GluR2 binding

Compound: C/C(=N\Nc1ccc([N+](=O)[O-])cc1[N+](=O)[O-])c1c(C(=O)O)noc1COCc1ccc2ccccc2c1 [Compound 17, 4-{1-[(2,4-Dinitro-phenyl)-hydrazono]-ethyl}-5-(naphthalen-2-ylmethoxymethyl)-isoxazole-3-carboxylic acid]
inhibitory activity at SXc^− (in words) [1]: virtually devoid of activity

Compound: N[C@@H](Cn1oc(=O)[nH]c1=O)C(=O)O [QA, quisqualate]
rate of exchange with L-Glu relative to L-Cys2 (SXc^− [2]): 35%
pKi (SXc^− [3]): ~5.30

Compound: L-cystine [reference compound]
substrate-induced efflux of L-Glu (substrate activity) (SXc^− [4]): produced a significant efflux of L-glutamate over baseline

The next lines start with results.

inhibition of SXc^−-mediated L-Glu uptake ([1]; compound 500 μM (100 minus % of control of Table 2)): 86%
inhibitory activity at SXc^− (in words) [1]: moderate amount of inhibitory activity
Compound: 4-{1-[(3,5-Bis-trifluoromethyl-phenyl)-hydrazono]-ethyl}-5-(2-naphthalen-2-yl-ethyl)-isoxazole-3-carboxylic acid [Compound 11e]

inhibitory activity at SXc^− (in words) [1]: no discernable activity
Compound: Cc1onc(C(=O)O)c1C[C@H](N)C(=O)O [Compound 7, amino-3-carboxy-5-methylisoxazole propionic acid, reference compound]

inhibitory activity at SXc^− (in words) [1]: markedly inhibit
Compound: N[C@@H](Cc1c(C(=O)O)noc1CCc1ccccc1)C(=O)O [Compound 7d]
displacement of radiolabeled AMPA (AMPA receptor): essentially no ability to displace radiolabeled AMPA

inhibitory activity at SXc^− (in words) [1]: markedly inhibit
Compound: N[C@@H](Cc1c(C(=O)O)noc1COCc1ccccc1)C(=O)O [Compound 7e, 4-[(2R,S)-2-amino-2-carboxyethyl]-5-[benzyloxymethyl]isoxazole-3-carboxylic acid]

inhibitory activity at SXc^− (in words) [1]: markedly inhibit
Compound: N[C@@H](Cc1c(C(=O)O)noc1CCc1cccc2ccccc12)C(=O)O [Compound 7f]
displacement of radiolabeled AMPA (AMPA receptor): essentially no ability to displace radiolabeled AMPA

attenuation of L-Cys2-induced efflux of L-Glu (SXc^− [4]; listed as S-2-naphthyl-ACPA): attenuate L-cystine-induced efflux
inhibitory activity at SXc^− (in words) [1]: markedly inhibit
Compound: N[C@@H](Cc1c(C(=O)O)noc1CCc1ccc2ccccc2c1)C(=O)O [Compound 7g]
displacement of radiolabeled AMPA (AMPA receptor): essentially no ability to displace radiolabeled AMPA
substrate-induced efflux of L-Glu (substrate activity) (SXc^− [4]): did not induce an efflux of L-Glu over background levels
attenuation of L-Cys2-induced efflux of L-Glu (SXc^− [4]): did attenuate the ability of L-Cys2 to exchange with intracellular L-Glu

inhibitory activity at SXc^− (in words) [1]: moderate amount of inhibitory activity
Compound: C/C(=N\NC(=O)Nc1ccccc1)c1c(C(=O)O)noc1C [Compound 9c]
GluR2 binding (GluR2): no detectable GluR2 binding

time for the open form to convert to the closed [3,4-d] form in solution [5]: a matter of a few hours
Compound: C/C(=N\Nc1ccccc1)c1c(C(=O)O)noc1C [Compound 11a, 5-Methyl-4-[1-(phenyl-hydrazono)-ethyl]-isoxazole-3-carboxylic acid]
